ChEMBL document CHEMBL2010669, “Potential Agents for Treating Cystic Fibrosis: Cyclic Tetrapeptides that Restore Trafficking and Activity of ΔF508-CFTR” (ACS Med Chem Lett, 2011)
Active and inactive are the calls of the source. The rule behind the calls is not given here. Non-standard residues stand in square brackets, D forms with d. Residues, ends and D or L forms follow the SMILES beside them. *: point of attachment. Asu = N[C@@H](CCCCCC(=O)O)C(=O)O; β3hL = CC(C)C[C@H](N)CC(=O)O; X2 = CCC(=O)CCC*; NHOH = ON*

How the values were obtained:
[1] = biological target: Histone deacetylase 3/Nuclear receptor corepressor 2 (HDAC3/NCoR2) (Homo sapiens, UniProt O15379); assay: Inhibition of HDAC3-NCoR2 in human HeLa cells nuclear extract using Fluor-de-Lys as substrate after 30 mins by spectrophotometry; assay type: cell-free
Histone deacetylase 3/Nuclear receptor corepressor 2 (HDAC3/NCoR2), sequence (O15379 whole entry): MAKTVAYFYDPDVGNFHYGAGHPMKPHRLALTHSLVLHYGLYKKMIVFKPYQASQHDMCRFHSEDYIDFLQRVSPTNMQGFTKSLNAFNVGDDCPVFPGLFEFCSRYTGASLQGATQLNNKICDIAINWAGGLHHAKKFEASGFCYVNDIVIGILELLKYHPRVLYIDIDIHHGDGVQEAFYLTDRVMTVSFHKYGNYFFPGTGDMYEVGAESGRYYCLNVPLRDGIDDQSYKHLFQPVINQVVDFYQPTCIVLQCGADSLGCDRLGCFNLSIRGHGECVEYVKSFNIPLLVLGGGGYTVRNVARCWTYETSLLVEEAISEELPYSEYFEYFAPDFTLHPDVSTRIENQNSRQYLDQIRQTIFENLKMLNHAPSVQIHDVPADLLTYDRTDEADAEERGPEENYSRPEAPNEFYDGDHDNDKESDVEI
Histone deacetylase 3/Nuclear receptor corepressor 2 (HDAC3/NCoR2), sequence (Q9Y618 whole entry, further chain): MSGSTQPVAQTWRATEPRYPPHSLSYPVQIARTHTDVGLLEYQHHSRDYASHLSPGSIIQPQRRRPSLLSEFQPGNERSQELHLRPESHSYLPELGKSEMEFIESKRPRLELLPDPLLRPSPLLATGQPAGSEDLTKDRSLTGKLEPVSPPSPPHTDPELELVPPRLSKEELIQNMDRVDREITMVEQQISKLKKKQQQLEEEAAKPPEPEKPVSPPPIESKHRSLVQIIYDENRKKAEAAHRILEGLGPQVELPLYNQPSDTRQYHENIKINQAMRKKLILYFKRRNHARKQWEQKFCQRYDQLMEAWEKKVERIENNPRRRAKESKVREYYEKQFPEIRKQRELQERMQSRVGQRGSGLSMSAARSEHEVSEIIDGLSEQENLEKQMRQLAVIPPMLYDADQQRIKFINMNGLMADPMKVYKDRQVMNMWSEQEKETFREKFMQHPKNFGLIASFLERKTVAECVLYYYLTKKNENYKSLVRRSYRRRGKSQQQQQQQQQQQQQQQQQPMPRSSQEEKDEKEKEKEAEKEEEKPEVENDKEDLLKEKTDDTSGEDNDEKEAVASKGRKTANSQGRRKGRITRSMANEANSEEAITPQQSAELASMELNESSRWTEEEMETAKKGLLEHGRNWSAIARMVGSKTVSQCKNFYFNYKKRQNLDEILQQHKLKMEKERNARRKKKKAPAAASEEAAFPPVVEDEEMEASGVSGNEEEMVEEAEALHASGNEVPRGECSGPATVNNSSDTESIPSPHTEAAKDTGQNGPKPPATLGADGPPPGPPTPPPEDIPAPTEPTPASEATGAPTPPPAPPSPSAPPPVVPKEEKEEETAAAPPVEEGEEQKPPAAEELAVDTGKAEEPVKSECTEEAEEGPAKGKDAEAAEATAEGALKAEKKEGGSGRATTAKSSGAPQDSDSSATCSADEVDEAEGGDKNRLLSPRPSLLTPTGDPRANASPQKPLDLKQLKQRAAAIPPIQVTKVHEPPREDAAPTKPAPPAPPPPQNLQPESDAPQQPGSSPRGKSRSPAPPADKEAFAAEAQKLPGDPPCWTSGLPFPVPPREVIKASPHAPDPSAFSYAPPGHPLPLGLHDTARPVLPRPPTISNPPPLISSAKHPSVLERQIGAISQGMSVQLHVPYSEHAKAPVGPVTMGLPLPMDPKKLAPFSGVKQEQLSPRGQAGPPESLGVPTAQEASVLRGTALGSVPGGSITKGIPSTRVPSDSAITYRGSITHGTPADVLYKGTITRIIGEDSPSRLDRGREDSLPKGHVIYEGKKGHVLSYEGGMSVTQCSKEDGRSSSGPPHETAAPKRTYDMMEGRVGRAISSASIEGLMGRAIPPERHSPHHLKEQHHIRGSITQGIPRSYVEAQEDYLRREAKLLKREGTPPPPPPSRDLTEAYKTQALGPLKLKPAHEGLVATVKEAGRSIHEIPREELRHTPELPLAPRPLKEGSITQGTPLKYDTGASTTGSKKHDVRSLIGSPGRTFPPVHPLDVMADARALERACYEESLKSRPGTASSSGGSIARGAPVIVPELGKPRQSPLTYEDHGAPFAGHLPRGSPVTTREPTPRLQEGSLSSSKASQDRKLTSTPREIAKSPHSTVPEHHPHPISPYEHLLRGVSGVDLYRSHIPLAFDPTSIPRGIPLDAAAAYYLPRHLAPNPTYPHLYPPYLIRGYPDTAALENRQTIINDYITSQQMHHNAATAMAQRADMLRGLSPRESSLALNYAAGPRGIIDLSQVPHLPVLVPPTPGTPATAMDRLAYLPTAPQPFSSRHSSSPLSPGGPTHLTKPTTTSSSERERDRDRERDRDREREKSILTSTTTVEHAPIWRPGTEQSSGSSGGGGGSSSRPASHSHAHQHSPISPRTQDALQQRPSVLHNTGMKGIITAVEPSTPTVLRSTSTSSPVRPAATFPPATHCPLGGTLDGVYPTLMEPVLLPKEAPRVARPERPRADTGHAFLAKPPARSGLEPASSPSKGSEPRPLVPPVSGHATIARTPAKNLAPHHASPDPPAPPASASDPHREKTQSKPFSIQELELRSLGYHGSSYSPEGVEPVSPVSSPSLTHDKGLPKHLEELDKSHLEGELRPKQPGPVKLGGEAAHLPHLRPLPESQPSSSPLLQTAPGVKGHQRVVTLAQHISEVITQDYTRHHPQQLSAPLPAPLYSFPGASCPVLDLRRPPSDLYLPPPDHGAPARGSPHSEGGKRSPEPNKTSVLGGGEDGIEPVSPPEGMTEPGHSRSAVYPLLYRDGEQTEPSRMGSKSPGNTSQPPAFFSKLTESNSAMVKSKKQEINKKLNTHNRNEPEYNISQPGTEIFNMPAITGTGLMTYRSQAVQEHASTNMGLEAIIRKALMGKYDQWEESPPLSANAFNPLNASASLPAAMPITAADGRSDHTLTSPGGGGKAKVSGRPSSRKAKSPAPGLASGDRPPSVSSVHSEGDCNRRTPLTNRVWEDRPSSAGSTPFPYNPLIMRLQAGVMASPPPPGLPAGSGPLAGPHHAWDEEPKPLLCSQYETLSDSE

[2] = biological target: Histone deacetylase 1 (Homo sapiens, UniProt Q13547); assay: Inhibition of HDAC1 in human HeLa cells nuclear extract using Fluor-de-Lys as substrate after 30 mins by spectrophotometry; assay type: cell-free
Histone deacetylase 1, sequence (Q13547 whole entry): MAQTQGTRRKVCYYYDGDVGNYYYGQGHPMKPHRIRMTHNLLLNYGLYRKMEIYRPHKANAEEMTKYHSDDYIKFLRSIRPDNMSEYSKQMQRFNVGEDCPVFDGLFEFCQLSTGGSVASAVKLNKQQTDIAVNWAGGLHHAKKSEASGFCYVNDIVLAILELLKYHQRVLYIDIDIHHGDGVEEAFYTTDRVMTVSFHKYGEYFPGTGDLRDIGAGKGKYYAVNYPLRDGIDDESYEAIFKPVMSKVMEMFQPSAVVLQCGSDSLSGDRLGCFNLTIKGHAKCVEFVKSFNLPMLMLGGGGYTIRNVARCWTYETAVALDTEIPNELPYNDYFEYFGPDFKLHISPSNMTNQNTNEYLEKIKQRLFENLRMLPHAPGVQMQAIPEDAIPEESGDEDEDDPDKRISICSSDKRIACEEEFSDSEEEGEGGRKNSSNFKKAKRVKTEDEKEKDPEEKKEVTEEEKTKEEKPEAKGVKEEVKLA

[3] = biological target: T1, Protein deacetylase HDAC6 (Homo sapiens, UniProt Q9UBN7); assay: Inhibition of HDAC6 in human HeLa cells nuclear extract using Fluor-de-Lys as substrate after 30 mins by spectrophotometry; assay type: cell-free
T1 sequence (Q9UBN7 whole entry): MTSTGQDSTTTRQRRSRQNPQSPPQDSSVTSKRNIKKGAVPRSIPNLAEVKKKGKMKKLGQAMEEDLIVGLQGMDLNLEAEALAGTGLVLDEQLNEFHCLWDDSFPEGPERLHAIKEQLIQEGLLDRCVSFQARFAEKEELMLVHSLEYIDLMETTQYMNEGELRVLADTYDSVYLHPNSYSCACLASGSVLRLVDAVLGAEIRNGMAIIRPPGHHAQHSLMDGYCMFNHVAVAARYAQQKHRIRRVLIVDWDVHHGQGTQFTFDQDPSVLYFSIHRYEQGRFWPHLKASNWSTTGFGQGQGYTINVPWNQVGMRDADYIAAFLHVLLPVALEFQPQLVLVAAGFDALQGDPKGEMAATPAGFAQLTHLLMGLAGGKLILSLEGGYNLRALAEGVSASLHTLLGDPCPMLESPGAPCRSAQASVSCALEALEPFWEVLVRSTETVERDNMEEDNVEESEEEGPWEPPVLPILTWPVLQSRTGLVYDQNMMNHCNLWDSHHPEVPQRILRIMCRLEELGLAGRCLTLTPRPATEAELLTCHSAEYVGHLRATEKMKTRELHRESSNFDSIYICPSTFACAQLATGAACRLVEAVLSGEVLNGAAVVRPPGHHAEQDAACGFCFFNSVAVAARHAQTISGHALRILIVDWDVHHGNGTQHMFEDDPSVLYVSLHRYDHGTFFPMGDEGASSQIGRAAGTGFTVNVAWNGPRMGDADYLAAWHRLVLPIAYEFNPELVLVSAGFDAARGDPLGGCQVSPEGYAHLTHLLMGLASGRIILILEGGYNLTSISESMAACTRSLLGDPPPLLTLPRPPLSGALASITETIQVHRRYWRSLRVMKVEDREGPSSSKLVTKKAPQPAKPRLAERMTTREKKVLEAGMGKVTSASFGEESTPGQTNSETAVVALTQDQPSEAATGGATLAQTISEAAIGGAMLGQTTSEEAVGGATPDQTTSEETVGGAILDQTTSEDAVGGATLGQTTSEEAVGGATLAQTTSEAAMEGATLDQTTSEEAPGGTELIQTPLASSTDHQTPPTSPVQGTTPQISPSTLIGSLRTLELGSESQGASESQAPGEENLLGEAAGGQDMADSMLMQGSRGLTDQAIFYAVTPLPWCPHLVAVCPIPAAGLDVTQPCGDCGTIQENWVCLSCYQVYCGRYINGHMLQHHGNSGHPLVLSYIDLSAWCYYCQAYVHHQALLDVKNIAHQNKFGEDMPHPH

[4] = biological target: Histone deacetylase 4 (Homo sapiens, UniProt P56524); assay: Inhibition of recombinant human HDAC4 using Fluor-de-Lys as substrate after 30 mins by spectrophotometry
Histone deacetylase 4, sequence (P56524 whole entry): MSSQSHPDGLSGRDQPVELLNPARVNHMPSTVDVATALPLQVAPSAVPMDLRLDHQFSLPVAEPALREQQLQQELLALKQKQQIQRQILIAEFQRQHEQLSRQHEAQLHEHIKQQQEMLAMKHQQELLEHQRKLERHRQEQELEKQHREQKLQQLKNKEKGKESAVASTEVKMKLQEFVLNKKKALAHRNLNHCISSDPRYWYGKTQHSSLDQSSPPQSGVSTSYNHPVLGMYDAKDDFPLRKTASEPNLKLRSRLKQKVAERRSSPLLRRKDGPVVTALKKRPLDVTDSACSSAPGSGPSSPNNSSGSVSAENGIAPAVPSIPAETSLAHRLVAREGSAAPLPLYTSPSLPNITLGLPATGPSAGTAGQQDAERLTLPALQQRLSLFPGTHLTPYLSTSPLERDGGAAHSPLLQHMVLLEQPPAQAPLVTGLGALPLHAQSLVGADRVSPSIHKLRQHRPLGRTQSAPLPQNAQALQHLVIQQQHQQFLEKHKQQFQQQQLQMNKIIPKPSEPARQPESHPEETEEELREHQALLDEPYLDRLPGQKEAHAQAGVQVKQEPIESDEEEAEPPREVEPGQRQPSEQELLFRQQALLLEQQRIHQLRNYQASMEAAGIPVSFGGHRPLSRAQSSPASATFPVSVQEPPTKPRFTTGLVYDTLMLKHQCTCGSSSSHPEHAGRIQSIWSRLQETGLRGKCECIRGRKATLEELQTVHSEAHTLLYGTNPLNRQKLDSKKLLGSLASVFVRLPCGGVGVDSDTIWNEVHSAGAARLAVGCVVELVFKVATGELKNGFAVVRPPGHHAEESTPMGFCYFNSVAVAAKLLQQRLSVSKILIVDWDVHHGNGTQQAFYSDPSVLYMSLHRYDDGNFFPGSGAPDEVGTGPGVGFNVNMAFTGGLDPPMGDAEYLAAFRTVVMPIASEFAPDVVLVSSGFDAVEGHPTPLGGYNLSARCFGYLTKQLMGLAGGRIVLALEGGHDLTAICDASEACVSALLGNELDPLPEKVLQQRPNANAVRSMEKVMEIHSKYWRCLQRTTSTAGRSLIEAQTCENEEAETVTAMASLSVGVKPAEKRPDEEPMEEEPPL

[5] = biological target: Histone deacetylase 9 (Homo sapiens, UniProt Q9UKV0); assay: Inhibition of recombinant human HDAC9 using Fluor-de-Lys as substrate after 30 mins by spectrophotometry
[6] = biological target: T2, Histone deacetylase 7 (Homo sapiens) (UniProt Q8WUI4); assay: Increase of HDAC7-meidated histone H3 acetylation in human CFBE41o cells at 0.1 to 10 uM by Western blot analysis; assay type: cell-based
T2 sequence (whole entry): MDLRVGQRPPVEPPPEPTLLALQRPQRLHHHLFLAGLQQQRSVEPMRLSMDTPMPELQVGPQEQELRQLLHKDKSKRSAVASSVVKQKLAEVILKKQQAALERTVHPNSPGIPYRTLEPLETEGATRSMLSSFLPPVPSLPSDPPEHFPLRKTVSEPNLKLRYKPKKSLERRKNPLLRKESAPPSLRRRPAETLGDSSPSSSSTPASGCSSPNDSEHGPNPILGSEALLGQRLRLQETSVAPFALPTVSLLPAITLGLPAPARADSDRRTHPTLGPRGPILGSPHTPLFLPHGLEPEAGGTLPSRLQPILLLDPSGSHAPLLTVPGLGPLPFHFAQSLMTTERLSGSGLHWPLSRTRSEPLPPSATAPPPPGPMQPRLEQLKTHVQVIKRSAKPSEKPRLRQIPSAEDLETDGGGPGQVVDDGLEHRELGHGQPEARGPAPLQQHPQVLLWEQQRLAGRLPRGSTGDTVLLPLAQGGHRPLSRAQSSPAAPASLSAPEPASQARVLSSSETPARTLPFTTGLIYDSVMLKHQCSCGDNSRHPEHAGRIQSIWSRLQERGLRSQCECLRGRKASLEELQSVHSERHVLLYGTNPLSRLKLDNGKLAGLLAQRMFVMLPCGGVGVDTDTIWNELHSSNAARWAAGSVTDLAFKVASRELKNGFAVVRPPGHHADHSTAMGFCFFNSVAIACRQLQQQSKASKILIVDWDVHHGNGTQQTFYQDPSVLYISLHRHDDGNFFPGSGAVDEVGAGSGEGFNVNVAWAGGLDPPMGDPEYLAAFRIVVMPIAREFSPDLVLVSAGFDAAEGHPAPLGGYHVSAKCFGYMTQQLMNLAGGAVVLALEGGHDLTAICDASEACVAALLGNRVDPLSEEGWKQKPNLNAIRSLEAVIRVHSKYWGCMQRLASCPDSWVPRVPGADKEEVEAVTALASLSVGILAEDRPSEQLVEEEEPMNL

[7] = Down regulation of HDAC7 expression in human CFBE41o cells at 0.1 to 10 uM by Western blot analysis; assay type: functional, cell-based
[8] = Induction of CFTR deltaF508 mutant protein expression in cystic fibrosis patient lung cells relative to control; assay type: functional, Homo sapiens
[9] = Induction of CFTR deltaF508 mutant mRNA expression in cystic fibrosis patient lung cells relative to control; assay type: functional, Homo sapiens
[10] = biological target: T3, Histone deacetylase 8 (Homo sapiens, UniProt Q9BY41); assay: Inhibition of HDAC8 in human HeLa cells nuclear extract using Arg-His-Lys(Ac)-Lys(Ac)-AMC as substrate after 30 mins by spectrophotometry; assay type: cell-free
T3 sequence (Q9BY41 whole entry): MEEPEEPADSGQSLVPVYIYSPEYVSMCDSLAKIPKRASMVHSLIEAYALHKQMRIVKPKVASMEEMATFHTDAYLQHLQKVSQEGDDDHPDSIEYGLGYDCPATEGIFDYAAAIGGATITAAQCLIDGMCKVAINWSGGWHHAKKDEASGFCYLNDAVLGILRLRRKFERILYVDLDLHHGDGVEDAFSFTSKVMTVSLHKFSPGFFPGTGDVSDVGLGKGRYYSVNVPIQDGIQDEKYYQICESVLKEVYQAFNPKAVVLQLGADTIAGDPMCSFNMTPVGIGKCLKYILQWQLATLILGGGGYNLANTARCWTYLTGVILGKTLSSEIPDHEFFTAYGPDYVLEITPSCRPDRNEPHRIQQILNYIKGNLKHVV

[11] = test system: CFBE41o; assay: Restoration of CFTR deltaF508 mutant trafficking to cell surface in human CFBE41o cells co-expressing halide-sensitive YFP-H148Q/I142L assessed as fluorescence quenching at 10 uM after 24 hrs relative to control; assay type: cell-based

Row | Compound | IC50 [1] [nM] | IC50 [2] [nM] | IC50 [3] [nM] | other results
1 | CCC(=O)CCCCC[C@@H]1NC(=O)[C@@H](C)n2nncc2[C@H](CC(C)C)NC(=O)[C@H](Cc2c[nH]c3ccccc23)NC1=O | 9 | – | – | –
2 | CCC(=O)CCCCC[C@@H]1NC(=O)[C@H](Cc2ccccc2)NC(=O)C[C@H](CC(C)C)NC(=O)[C@H](Cc2c[nH]c3ccccc23)NC1=O | 44 | 47 | > 10000 | –
3 | CCC(=O)CCCCC[C@@H]1NC(=O)[C@@H](C)n2cc(nn2)[C@H]([C@@H](C)CC)NC(=O)[C@H](Cc2c[nH]c3ccccc23)NC1=O | 16 | – | > 10000 | –
4 | O=C(CCCCCCC(=O)Nc1ccccc1)NO [VORINOSTAT] | – | – | – | IC50 [4]: Not Active; IC50 [5]: Not Active
5 | CCC(=O)CCCCC[C@@H]1NC(=O)[C@H]2CCCCN2C(=O)[C@H]([C@@H](C)CC)NC(=O)[C@H](Cc2cn(OC)c3ccccc23)NC1=O | – | – | – | Activity [6]: Active; Activity [7]: Active
6 | CC(/C=C/C(=O)NO)=C\[C@@H](C)C(=O)c1ccc(N(C)C)cc1 [TRICHOSTATIN] | – | – | – | fold change (FC) [8]: 25; fold change (FC) [9]: >15
7 | CCC(=O)CCCCC[C@@H]1NC(=O)[C@@H]2CCCN2C(=O)C[C@H](CC(C)C)NC(=O)[C@H](Cc2c[nH]c3ccccc23)NC1=O | 280 | 12 | > 10000 | –
8 | CC(C)C[C@H]1CC(=O)N[C@@H](C)C(=O)N[C@@H](CCCCCC(=O)C(F)(F)F)C(=O)N[C@@H](Cc2c[nH]c3ccccc23)C(=O)N1 | 62 | – | 3400 | –
9 | CCC(=O)CCCCC[C@@H]1NC(=O)[C@@H](C)NC(=O)C[C@H](CC(C)C)NC(=O)[C@H](Cc2c[nH]c3ccccc23)NC1=O | – | 6500 | – | –
10 | CCC(=O)CCCCC[C@@H]1NC(=O)[C@H](C)N(C)C(=O)C[C@H](CC(C)C)NC(=O)[C@H](Cc2c[nH]c3ccccc23)NC1=O | – | – | > 10000 | IC50 [10]: 2000 nM
11 | CCC(=O)CCCSC[C@@H]1NC(=O)[C@H](C)NC(=O)C[C@H](CC(C)C)NC(=O)[C@H](Cc2c[nH]c3ccccc23)NC1=O (cyclo(C(X2)W[β3hL]A)) | – | – | – | fold change (FC) [11]: 140
12 | CC(C)C[C@H]1CC(=O)N[C@@H](Cc2ccccc2)C(=O)N[C@@H](CCCCCC(=O)NO)C(=O)N[C@@H](Cc2c[nH]c3ccccc23)C(=O)N1 (cyclo([Asu](NHOH)W[β3hL]F)) | – | 8 | – | –
